Read-outs that look alike come from different tables or passages of the source.
Columns and labels:
GBM0308 CSCs = assay: Dose-response killing of GBM CSCs (PI/Hoechst, Celigo cytometer); assay type: cell-based
Text: (§1) The inventors first evaluated a cohort of seven rocaglate translation inhibitors (1, 3-7, and 9, FIG. 1A and Table 1, compounds 2 and 8 were not tested due to unavailability). To assay for compounds that selectively affect GBM CSCs, the inventors employed the patient-derived tumor-initiating cell (TIC) cell line […] that forms neurospheres (consisting exclusively of tumor-initiating cells or CSCs) when cultured in neurobasal (NBE) medium. Upon exposure to serum and growth factor withdrawal, however, the cell line differentiates, acquires a flattened morphology, and forms a non-CSC population.^20 Thus, compounds can be tested in parallel to assess their effect on GBM CSCs vs. GBM non-CSCs as separate populations with a clean and robust response. This approach has been previously used to perform RNAi-based genetic screens to identify modulators of CSCs.^20 In this study, GBM0308 cells, cultured in stem cell conditions to form CSCs or in medium containing serum to induce differentiation into a non-CSC population, were treated in parallel with compounds at varying doses. Three days post-treatment, propidium iodide (PI) and Hoechst staining were performed and quantified using a Celigo image cytometer. Hoechst dye stained all […] nucleated cells, while PI exclusively stained dead cells. Cell viability and the percentage of cell death were then determined.
(§2) Cell Culture: Glioblastoma stem cell lines GBM0308, BT145, and BT112 were cultured in neurobasal (NBE medium) containing N-2 and B-27 supplements, EGF, bFGF, L-glutamine, and Penicillin-Streptomycin), as described previously.^19 Adherent GBM cells were cultured in serum-containing DMEM media (Invitrogen) supplemented with 10% fetal bovine serum (Corning Cellgro™). Cells were incubated at 37° C. and 5% CO2 to allow neurosphere formation. For seeding and subculturing, the neurospheres were gently trypsinized with 0.025% trypsin to form a single-cell suspension.
(§3) Dose-Response Testing in GBM Cells: Briefly, on day 1, cells were seeded in triplicate. For CSCs, 1500 cells/well were plated in a low attachment 96-well plate with NBE media and incubated for 3 days at 37° C. and 5% CO2 to allow the formation of neurospheres. For non-CSCs, 3000 cells/well were plated in a 96-well plate with DMEM media supplemented with 10% FBS. Similarly, the assay plates were also incubated for the same duration. Compound treatments started on day 4. Each compound was resuspended in DMSO and then diluted to different concentrations in media to a final concentration of DMSO less than 1%. The compounds were added at concentrations of 10, 3.3, 1.11, 0.37, 0.12, 0.041, 0.013, and 0.004 µM, respectively. DMSO-treated cells served as a control. After 72 h incubation with the compounds, fluorescent stains, propidium iodide, and Hoechst 33342 (Life Technologies, Carlsbad, CA), were used to stain the GBM cells to determine cell viability. A staining solution in 1×PBS was prepared by mixing PI and Hoechst 33342 to working concentrations of 2.5 μM and 20 μM, respectively. 20 μL of this staining solution was added per well, and plates were incubated at 37° C. and 5% CO2 for 60 min. After incubation, plates were read by Celigo imaging cytometer using an inbuilt Celigo application; Cell Viability (Dead+Total). For the viability measurement, the total number of neurospheres/cells and dead neurospheres/cells in each well were counted by the cytometer. The percentage of PI+ cells was normalized to DMSO and plotted against the drug concentration to calculate the EC50 with a four-parameter, variable-slope dose-response curve with an upper constraint of <100% dead cells and a lower constraint of =0% dead cells (GraphPad Prism v.10.0.0). For all dose response experiments, the experimental maximal efficacy (maximum observed % cell death) is reported. Relative EC50 values are reported for all compounds killing >50% of cells.

GBM0308 non-CSCs = assay: Dose-response killing of GBM non-CSCs (PI/Hoechst, Celigo cytometer); assay type: cell-based; details: for Emax / EC50: Homo sapiens; for Emax / Non-CSCs Max. observed efficacy (% dead cells): 72 h; for EC50: read-out: Non-CSC EC50 (μM)
Text: as §1, §2, §3

[1] = Homo sapiens, 72 h, read-out: CSC Max. observed efficacy (% dead cells), Table 7, cell line not given
[2] = Homo sapiens, read-out: CSC EC50 (μM), Table 7, cell line not given
[3] = read-out: Non-CSC Max. observed efficacy (% dead cells), Table 7, cell line not given
[4] = Table 2, GBM0308 CSCs, 72 h, highest tested concentration 10 μM
[5] = Table 2, GBM0308 non-CSCs, highest tested concentration 10 μM
[6] = Homo sapiens, 72 h, read-out: CSCs EC50 (μM), Table 2, GBM0308 CSCs, 72 h treatment, relative EC50
[7] = Homo sapiens, 72 h, read-out: CSCs Max. observed efficacy (% dead cells), Table 2, GBM0308 CSCs, 72 h, highest tested concentration 10 μM
[8] = read-out: Non-CSCs Max. observed efficacy (% dead cells), Table 2, GBM0308 non-CSCs, highest tested concentration 10 μM
[9] = Table 1, GBM0308 CSCs, 72 h, up to 10 μM
[10] = Table 1, GBM0308 non-CSCs, up to 10 μM
[11] = Table 1, GBM0308 CSCs, 72 h treatment, relative EC50, given for compounds causing at least 50% cell death, read-out: CSCs EC50
[12] = Table 2, GBM0308 CSCs, 72 h treatment, relative EC50, read-out: CSCs EC50

COc1cc(OC)c2c(c1)O[C@@]1(c3ccc(Br)cc3)[C@H](c3ccccc3)[C@@H](C(=O)NS(=O)(=O)N(C)C(C)C)[C@@H](O)[C@@]21O [ZW-12-34, (1R,2R,3S,3aR,8bS)-3a-(4-bromophenyl)-1,8b-dihydroxy-N—(N-isopropyl-N-methylsulfamoyl)-6,8-dimethoxy-3-phenyl-2,3,3a,8b-tetrahydro-1H-cyclopenta[b]benzofuran-2-carboxamide]
Emax (GBM0308 CSCs; [1]): 79%
EC50 (GBM0308 CSCs; [2]): 1.85 µM
Emax (GBM0308 non-CSCs; [3]): 18%

COc1ccc([C@@]23Oc4cc(OC)cc(OC)c4[C@]2(O)[C@H](O)[C@H](C(=O)O)[C@H]3c2ccccc2)cc1 [(−)-10, rocaglaic acid]
CSCs Max. observed efficacy (% dead cells) (GBM0308 CSCs; [4]): 68%
Non-CSCs Max. observed efficacy (% dead cells) (GBM0308 non-CSCs; [5]): 27%

C#CCNS(=O)(=O)NC(=O)[C@H]1[C@@H](O)[C@@]2(O)c3c(OC)cc(OC)cc3O[C@@]2(c2ccc(Br)cc2)[C@@H]1c1ccccc1 [(−)-21, (1R,2R,3S,3aR,8bS)-3a-(4-bromophenyl)-1,8b-dihydroxy-6,8-dimethoxy-3-phenyl-N—(N-(prop-2-yn-1-yl)sulfamoyl)-2,3,3a,8b-tetrahydro-1H-cyclopenta[b]benzofuran-2-carboxamide]
EC50 (GBM0308 CSCs; [6]): 0.016 µM
Emax (GBM0308 CSCs; [7]): 92%
Emax (GBM0308 non-CSCs; [8]): 27%

aglaroxin C [rac-4, reference compound]
CSCs Max. observed efficacy (% dead cells) (GBM0308 CSCs; [9]): 42%
CSCs Max. observed efficacy (% dead cells) (GBM0308 CSCs; Table 1, GBM0308 CSCs, 72 h, up to 10 μM, listed as 4): ≤ 50%
Non-CSCs Max. observed efficacy (% dead cells) (GBM0308 non-CSCs; [10]): 26%

CCN(CC)S(=O)(=O)NC(=O)[C@H]1[C@@H](O)[C@@]2(O)c3c(OC)cc(OC)cc3O[C@@]2(c2ccc(Br)cc2)[C@@H]1c1ccccc1 [ZW-12-35, (1R,2R,3S,3aR,8bS)-3a-(4-bromophenyl)-N—(N,N-diethylsulfamoyl)-1,8b-dihydroxy-6,8-dimethoxy-3-phenyl-2,3,3a,8b-tetrahydro-1H-cyclopenta[b]benzofuran-2-carboxamide]
Emax (GBM0308 CSCs; [1]): 92%
EC50 (GBM0308 CSCs; [2]): 1.18 µM
Emax (GBM0308 non-CSCs; [3]): 16%

COc1cc(OC)c2c(c1)O[C@@]1(c3ccc(Cl)cc3)[C@H](c3ccccc3)[C@@H](C(=O)NS(=O)(=O)N(C)C)[C@@H](O)[C@@]21O [ZW-12-31, (1R,2R,3S,3aR,8bS)-3a-(4-chlorophenyl)-N—(N,N-dimethylsulfamoyl)-1,8b-dihydroxy-6,8-dimethoxy-3-phenyl-2,3,3a,8b-tetrahydro-1H-cyclopenta[b]benzofuran-2-carboxamide]
Emax (GBM0308 CSCs; [1]): 72%
EC50 (GBM0308 CSCs; [2]): 0.693 µM
Emax (GBM0308 non-CSCs; [3]): 25%

COc1cc(OC)c2c(c1)O[C@@]1(c3ccc(Br)cc3)[C@H](c3ccccc3)[C@@H](C(=O)NS(C)(=O)=O)[C@@H](O)[C@@]21O [(−)-19, (1R,2R,3S,3aR,8bS)-3a-(4-bromophenyl)-1,8b-dihydroxy-6,8-dimethoxy-N-(methylsulfonyl)-3-phenyl-2,3,3a,8b-tetrahydro-1H-cyclopenta[b]benzofuran-2-carboxamide]
EC50 (GBM0308 CSCs; [6]): 0.095 µM
Emax (GBM0308 CSCs; [7]): 92%
EC50 (GBM0308 CSCs; Homo sapiens, read-out: CSC EC50, text, GBM0308 CSCs): < 0.125 µM
Emax (GBM0308 non-CSCs; [8]): 20%

COc1cc(OC)c2c(c1)O[C@@]1(c3ccc(Br)cc3)[C@H](c3ccccc3)[C@@H](C(=O)NS(=O)(=O)N3CC(C)C3)[C@@H](O)[C@@]21O [ZW-12-36, (1R,2R,3S,3aR,8bS)-3a-(4-bromophenyl)-1,8b-dihydroxy-6,8-dimethoxy-N-((3-methylazetidin-1-yl)sulfonyl)-3-phenyl-2,3,3a,8b-tetrahydro-1H-cyclopenta[b]benzofuran-2-carboxamide]
Emax (GBM0308 CSCs; [1]): 96%
EC50 (GBM0308 CSCs; [2]): 0.804 µM
Emax (GBM0308 non-CSCs; [3]): 11%

methyl rocaglate [(−)-3, reference compound]
CSCs Max. observed efficacy (% dead cells) (GBM0308 CSCs; [9]): 75%
EC50 (GBM0308 CSCs; [11]): 1.64 µM
Non-CSCs Max. observed efficacy (% dead cells) (GBM0308 non-CSCs; [10]): 23%

COc1cc(OC)c2c(c1)O[C@@]1(c3ccc(Br)cc3)[C@H](c3ccccc3)[C@@H](C(=O)NS(=O)(=O)N3CCOCC3)[C@@H](O)[C@@]21O [ZW-12-38, (1R,2R,3S,3aR,8bS)-3a-(4-bromophenyl)-1,8b-dihydroxy-6,8-dimethoxy-N-(morpholinosulfonyl)-3-phenyl-2,3,3a,8b-tetrahydro-1H-cyclopenta[b]benzofuran-2-carboxamide]
Emax (GBM0308 CSCs; [1]): 95%
EC50 (GBM0308 CSCs; [2]): 0.7 µM
Emax (GBM0308 non-CSCs; [3]): 19%
EC50 (GBM0308 non-CSCs): 0.463 µM

COc1ccc([C@@]23Oc4cc(OC)cc(OC)c4[C@]2(O)[C@H](O)[C@H](C(=O)O)[C@H]3c2ccccc2)cc1 [(+)-10, rocaglaic acid]
cytotoxic activity against CSCs, in words (GBM0308 CSCs; GBM0308 CSCs): limited activity
CSCs Max. observed efficacy (% dead cells) (GBM0308 CSCs; [4]): 58%
EC50 (GBM0308 CSCs; [12]): 7.08 µM
cytotoxic activity against non-CSCs, in words (GBM0308 non-CSCs; GBM0308 non-CSCs): limited activity
Non-CSCs Max. observed efficacy (% dead cells) (GBM0308 non-CSCs; [5]): 30%

COC(=O)[C@H]1[C@@H](O)[C@@]2(O)c3c(OC)cc(OC)cc3O[C@@]2(c2ccc(Br)cc2)[C@@H]1c1ccccc1 [(−)-9, reference compound]
CSCs Max. observed efficacy (% dead cells) (GBM0308 CSCs; [9]): 88%
EC50 (GBM0308 CSCs; [11]): 0.151 µM
Non-CSCs Max. observed efficacy (% dead cells) (GBM0308 non-CSCs; [10]): 25%

COc1cc(OC)c2c(c1)O[C@@]1(c3ccc(Br)cc3)[C@H](c3ccccc3)[C@@H](C(=O)NS(=O)(=O)N3CCCC3)[C@@H](O)[C@@]21O [ZW-12-37, (1R,2R,3S,3aR,8bS)-3a-(4-bromophenyl)-1,8b-dihydroxy-6,8-dimethoxy-3-phenyl-N-(pyrrolidin-1-ylsulfonyl)-2,3,3a,8b-tetrahydro-1H-cyclopenta[b]benzofuran-2-carboxamide]
Emax (GBM0308 CSCs; [1]): 95%
EC50 (GBM0308 CSCs; [2]): 0.7 µM
Emax (GBM0308 non-CSCs; [3]): 25%
EC50 (GBM0308 non-CSCs): 0.401 µM

COc1cc(OC)c2c(c1)O[C@@]1(c3ccc(Br)cc3)[C@H](c3ccccc3)[C@@H](C(=O)NS(=O)(=O)N(C)C)[C@@H](O)[C@@]21O [BUCMD790 (—), (1R,2R,3S,3aR,8bS)-3a-(4-bromophenyl)-N-(N,N-dimethylsulfamoyl)-1,8b-dihydroxy-6,8-dimethoxy-3-phenyl-2,3,3a,8b-tetrahydro-1H-cyclopenta[b]benzofuran-2-carboxamide]
Emax (GBM0308 CSCs; Homo sapiens, 72 h, Table 7, cell line not given, read-out: CSC Max. observed efficacy (% dead cells)): 93%
EC50 (GBM0308 CSCs; Homo sapiens, Table 7, cell line not given, read-out: CSC EC50): 0.045 µM
Emax (GBM0308 non-CSCs; Table 7, cell line not given, read-out: Non-CSC Max. observed efficacy (% dead cells)): 26%

COc1cc(OC)c2c(c1)O[C@@]1(c3ccc(Br)cc3)[C@H](c3ccccc3)[C@@H](C(=O)O)[C@@H](O)[C@@]21O [(−)-11]
CSCs Max. observed efficacy (% dead cells) (GBM0308 CSCs; [4]): 92%
EC50 (GBM0308 CSCs; [12]): 0.121 µM
Non-CSCs Max. observed efficacy (% dead cells) (GBM0308 non-CSCs; [5]): 25%

— patent publication US12612395B2, “Rocaglate derivatives and uses thereof” (TRUSTEES OF BOSTON UNIVERSITY, priority 2023, dated 2026)
